Reference: patent US10882856B2 (BeiGene, Ltd., priority 2017, dated 2021)
pEC50, pIC50: −log10 of the molar value.

Columns and labels:
IDO1 [1] = target: T1, IDO1 (Homo sapiens, UniProt P14902); experiment: IDO1 enzymatic assay; format: biochemical; set-up: His tag (N); made in house; host or cells: E. coli; conditions: read-out: Enzyme IC50 IDO1
Outline: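 Recombinant N-terminally His-tagged IDO1 purified from E. coli (50 nM) was incubated with compound or DMSO and 1.3 mM D-tryptophan, 5 mM L-ascorbic acid, methylene blue and 0.4 mg/mL catalase. The buffer was 50 mM potassium phosphate pH 7.5 with 0.1% BSA, at 24 °C for 1.5 hours. N'-formylkynurenine formation was then read continuously at 321 nm for 1 hour, and activity was taken as the slope. IC50 was calculated from remaining enzyme activity across increasing compound concentrations.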

[2] = target: T2, cellular TDO2 in HEK293-TDO2 cells (Homo sapiens, UniProt P48775); experiment: 293-TDO2 cell-based assay (Kyn colorimetric); conditions: 48 hours of incubation
T2 construct: expressed in transfected cells; host or cells: HEK293 (ATCC), stably transfected
Protocol: The inhibitory activity of TDO2 inhibitors is determined by using a colorimetric reaction to measure Kyn generated from L-Trp (L-Tryptophon) oxidation by cellular TDO2 in HEK293-TDO2 cells stably transfected with a plasmid expression of Tryptophan 2,3-dioxygenase (for short, 293-TDO2).
HEK293 cells were obtained from the American Type Culture Collection and 293-TDO2 were recovered in 10% FBS-containing phenol red-free DMEM medium. Cells were plated onto a 96-well plate (100 μl/well) at 10000 cells per well and kept at 37° C. in a humidified incubator supplied with 5% CO2. 4 hours later, Compounds at different concentrations diluted in dimethylsulfoxide (DMSO) were added to plate. Cells were kept at 37° C. in a humidified incubator supplied with 5% CO2. After 48 hours of incubation, 100 μl supernatant from each well was removed to a new plate. The protein in the medium was precipitated with the addition of 8 μl 6N trichloroacetic acid. The plate was incubated at 60° C. for 30 minutes and then centrifugation at 2500 rpm for 10 minutes to remove sediments. 80 μl supernatants were carefully removed to a new clean plate and added with an equal volume of 2% 4-(Dimethylamino) benzaldehyde (D2004, sigma) dissolved in glacial acetic acid. The absorbance at 480 nm wavelength derived from Kyn was measured using a PHERAstar FS plate reader (BMG LABTECH). The IC50 for each compound was derived from fitting the dose-response data to the four-parameter logistic model by using XLfit software (IDBS).

IDO1 [3] = target: T1, IDO1; experiment: Hela cell-based IDO1 assay; conditions: Hela cells
Outline: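 HeLa cells were plated at 8000 per well in 96-well plates containing phenol red-free DMEM with 10% FBS, and after 4 hours compound dilutions made in DMSO were added together with IFN-γ (final 100 ng/mL) and 0.4 mM L-Trp before 48 hours at 37 °C, 5% CO2. Supernatants were deproteinised with trichloroacetic acid, mixed with 2% 4-(dimethylamino)benzaldehyde and read at 480 nm for kynurenine. Four-parameter logistic fits were run in XLfit. Potency was derived from these fits.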

T1 sequence (P14902 whole entry): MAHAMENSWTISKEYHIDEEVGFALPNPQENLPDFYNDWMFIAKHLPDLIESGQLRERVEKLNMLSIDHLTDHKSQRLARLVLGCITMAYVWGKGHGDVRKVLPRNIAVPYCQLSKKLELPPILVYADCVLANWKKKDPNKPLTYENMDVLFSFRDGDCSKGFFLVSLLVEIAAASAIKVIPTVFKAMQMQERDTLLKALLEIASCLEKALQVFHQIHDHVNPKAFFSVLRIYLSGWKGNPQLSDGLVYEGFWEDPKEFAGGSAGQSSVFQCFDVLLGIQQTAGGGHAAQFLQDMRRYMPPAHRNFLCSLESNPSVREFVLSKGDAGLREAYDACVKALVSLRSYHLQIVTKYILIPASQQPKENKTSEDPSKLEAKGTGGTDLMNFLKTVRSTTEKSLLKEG
T2 sequence (P48775 whole entry): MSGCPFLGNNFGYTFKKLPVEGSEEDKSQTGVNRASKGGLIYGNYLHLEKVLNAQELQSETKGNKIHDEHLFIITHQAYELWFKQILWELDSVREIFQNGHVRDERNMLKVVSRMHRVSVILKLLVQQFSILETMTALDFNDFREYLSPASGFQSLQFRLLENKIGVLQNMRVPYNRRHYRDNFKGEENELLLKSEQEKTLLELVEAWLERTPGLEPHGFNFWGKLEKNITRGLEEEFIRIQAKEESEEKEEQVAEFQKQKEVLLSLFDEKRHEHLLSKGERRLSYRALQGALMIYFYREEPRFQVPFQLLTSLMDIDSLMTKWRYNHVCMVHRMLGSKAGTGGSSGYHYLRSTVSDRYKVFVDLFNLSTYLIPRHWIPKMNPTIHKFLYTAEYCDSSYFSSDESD

Compound | pIC50 (IDO1 [1]) | pEC50 [2] | pEC50 (IDO1 [3])
O[C@@H](c1c(C2CC2)ccc2cncn12)[C@H]1CC[C@H](c2ccc(Oc3ccccc3)cc2)CC1 (single isomer, unassigned) [Example D120b] | 5.43 | < 5.00 | 5.37
Nc1ccc([C@H]2CC[C@H]([C@H](O)c3c(C4CC4)ccc4cncn34)CC2)cc1 (single isomer, unassigned) [Example D122a] | 7.74 | < 5.00 | 6.99
Nc1ccc([C@H]2CC[C@H]([C@@H](O)c3c(C4CC4)ccc4cncn34)CC2)cc1 (single isomer, unassigned) [Example D122b] | 5.28 | < 5.00 | < 5.00
CNC(=O)c1ccc([C@H]2CC[C@H]([C@H](O)c3c(C4CC4)ccc4cncn34)CC2)cc1 (single isomer, unassigned) [Example D124a] | 7.72 | < 5.00 | 6.86
CNC(=O)c1ccc([C@H]2CC[C@H]([C@@H](O)c3c(C4CC4)ccc4cncn34)CC2)cc1 (single isomer, unassigned) [Example D124b] | 6.01 | < 5.00 | 5.28
CN(C)C(=O)c1ccc([C@H]2CC[C@H]([C@H](O)c3c(C4CC4)ccc4cncn34)CC2)cc1 (single isomer, unassigned) [Example D125a] | 7.85 | < 5.00 | 6.34
CN(C)C(=O)c1ccc([C@H]2CC[C@H]([C@@H](O)c3c(C4CC4)ccc4cncn34)CC2)cc1 (single isomer, unassigned) [Example D125b] | 5.80 | < 5.00 | 5.01
O[C@H](c1c(C2CC2)ccc2cncn12)[C@H]1CC[C@H](c2ccc(F)c(F)c2)CC1 (single isomer, unassigned) [Example D126a] | 7.74 | < 5.00 | 7.51
O[C@@H](c1c(C2CC2)ccc2cncn12)[C@H]1CC[C@H](c2ccc(F)c(F)c2)CC1 (single isomer, unassigned) [Example D126b] | < 5.00 | < 5.00 | 5.19
O[C@H](c1c(C2CC2)ccc2cncn12)[C@H]1CC[C@H](c2ccc(F)cc2F)CC1 (single isomer, unassigned) [Example D127a] | 7.80 | < 5.00 | 7.08
O[C@@H](c1c(C2CC2)ccc2cncn12)[C@H]1CC[C@H](c2ccc(F)cc2F)CC1 (single isomer, unassigned) [Example D127b] | 5.57 | < 5.00 | 5.34
O[C@H](c1c(C2CC2)ccc2cncn12)[C@H]1CC[C@H](c2ccc(Cl)c(F)c2)CC1 (single isomer, unassigned) [Example D128a] | 7.72 | < 5.00 | 6.90
O[C@@H](c1c(C2CC2)ccc2cncn12)[C@H]1CC[C@H](c2ccc(Cl)c(F)c2)CC1 (single isomer, unassigned) [Example D128b] | < 5.00 | < 5.00 | 5.07
O[C@H](c1c(C2CC2)ccc2cncn12)[C@H]1CC[C@H](c2ccc(F)c(Cl)c2)CC1 (single isomer, unassigned) [Example D129a] | 7.68 | < 5.00 | 7.25
O[C@@H](c1c(C2CC2)ccc2cncn12)[C@H]1CC[C@H](c2ccc(F)c(Cl)c2)CC1 (single isomer, unassigned) [Example D129b] | 5.12 | < 5.00 | 5.29
OC(c1c(C2CC2)ccc2cncn12)[C@H]1CC[C@H](c2ccc(F)cc2Cl)CC1 (single isomer, unassigned) [Example D130a] | 7.52 | < 5.00 | 6.69
OC(c1c(C2CC2)ccc2cncn12)[C@H]1CC[C@H](c2ccc(F)cc2Cl)CC1 (single isomer, unassigned) [Example D130b] | < 5.00 | < 5.00 | 5.03
OC(c1c(C2CC2)ccc2cncn12)[C@H]1CC[C@H](c2ccc(Cl)cc2F)CC1 (single isomer, unassigned) [Example D131a] | 7.49 | < 5.00 | 6.56

Compound | pIC50 (IDO1 [1]) | pEC50 [2] | pEC50 (IDO1 [3])
OC(c1c(C2CC2)ccc2cncn12)[C@H]1CC[C@H](c2cccc(F)c2F)CC1 (single isomer, unassigned) [Example D132a] | 7.68 | < 5.00 | 6.95
O[C@@H](c1c(C2CC2)ccc2cncn12)[C@H]1CC[C@H](c2ccc3sccc3c2)CC1 (single isomer, unassigned) [Example D133b] | < 5.00 | < 5.00 | 5.05
OC(c1c(C2CC2)ccc2cncn12)[C@H]1CC[C@H](c2ccc3ccsc3c2)CC1 (single isomer, unassigned) [Example D134b] | 5.57 | < 5.00 | 5.25
O[C@@H](c1c(C2CC2)ccc2cncn12)[C@H]1CC[C@H](c2cccc3ccccc32)CC1 (single isomer, unassigned) [Example D135b] | 5.28 | < 5.00 | 5.17
O[C@@H](c1c(C2CC2)ccc2cncn12)[C@H]1CC[C@H](c2ccc3ccccc3c2)CC1 (single isomer, unassigned) [Example D136b] | < 5.00 | < 5.00 | 5.14
O[C@@H](c1c(C2CC2)ccc2cncn12)[C@H]1CC[C@H](c2ccc(F)c3ccccc32)CC1 (single isomer, unassigned) [Example D137b] | 5.77 | < 5.00 | 5.68
COc1ccc([C@H]2CC[C@H](C(O)c3c(C4CC4)ccc4cncn34)CC2)c2ccccc12 (single isomer, unassigned) [Example D139a] | 7.48 | < 5.00 | 6.35
COc1ccc([C@H]2CC[C@H](C(O)c3c(C4CC4)ccc4cncn34)CC2)c2ccccc12 (single isomer, unassigned) [Example D139b] | < 5.00 | < 5.00 | 5.35
O[C@@H](c1c(C2CC2)ccc2cncn12)[C@H]1CC[C@H](c2ccnc3ccccc32)CC1 (single isomer, unassigned) [Example D140b] | 5.74 | < 5.00 | 5.76
O[C@@H](c1c(C2CC2)ccc2cncn12)[C@H]1CC[C@H](c2cccc3ncccc32)CC1 (single isomer, unassigned) [Example D141b] | 5.42 | < 5.00 | 5.12
O[C@H](c1c(C2CC2)ccc2cncn12)[C@H]1CC[C@H](c2cc(F)cc(F)c2)CC1 (single isomer, unassigned) [Example D144a] | 7.64 | < 5.00 | 7.28
O[C@@H](c1c(C2CC2)ccc2cncn12)[C@H]1CC[C@H](c2cc(F)cc(F)c2)CC1 (single isomer, unassigned) [Example D144b] | 5.10 | < 5.00 | 5.19
O[C@@H](c1c(C2CC2)ccc2cncn12)[C@H]1CC[C@H](c2ccc(F)c(F)c2F)CC1 (single isomer, unassigned) [Example D145b] | < 5.00 | < 5.00 | 5.02
COc1ccc([C@H]2CC[C@H](C(O)c3c(C4CC4)ccc4cncn34)CC2)c(F)c1 (single isomer, unassigned) [Example D146a] | 7.72 | < 5.00 | 6.91
COc1ccc([C@H]2CC[C@H](C(O)c3c(C4CC4)ccc4cncn34)CC2)c(F)c1 (single isomer, unassigned) [Example D146b] | 5.54 | < 5.00 | 5.34
COc1ccc([C@H]2CC[C@H]([C@H](O)c3c(C4CC4)ccc4cncn34)CC2)c(Cl)c1 (single isomer, unassigned) [Example D147a] | 7.70 | < 5.00 | 6.70
COc1ccc([C@H]2CC[C@H]([C@@H](O)c3c(C4CC4)ccc4cncn34)CC2)c(Cl)c1 (single isomer, unassigned) [Example D147b] | < 5.00 | < 5.00 | 5.35
